Results: patent US9096608B2, “Pharmaceutically active pyrazolo-triazine derivatives” (LEAD DISCOVERY CENTER GMBH, priority 2012, dated 2015)
Like-named read-outs stand apart in the source and are kept apart here.

Legend:
Type in all cases: biochemical
CDK9/Cyclin T1 = target: T1, CDK9/Cyclin T1 (Homo sapiens, UniProt P50750); assay: CDK9 Enzymatic Activity Assay (Lance Kinase Activity Assay, FRET); settings: for CDK9: Selectivity of CDK7 inhibition over CDK9 inhibition [fold]: Table 5B, symbols per IC50 ranges of b615
T1 construct: purchased Invitrogen
T1 sequence (P50750 whole entry): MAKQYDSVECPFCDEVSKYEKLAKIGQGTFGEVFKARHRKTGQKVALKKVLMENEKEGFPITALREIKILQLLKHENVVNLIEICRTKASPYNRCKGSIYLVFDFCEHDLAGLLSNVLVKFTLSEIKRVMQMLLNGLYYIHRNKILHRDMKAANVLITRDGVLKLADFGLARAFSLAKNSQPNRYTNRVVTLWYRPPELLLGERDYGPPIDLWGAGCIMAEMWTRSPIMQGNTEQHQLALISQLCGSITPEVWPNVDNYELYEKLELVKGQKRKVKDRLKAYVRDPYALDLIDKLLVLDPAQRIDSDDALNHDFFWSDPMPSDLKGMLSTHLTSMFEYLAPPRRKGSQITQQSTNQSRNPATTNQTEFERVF
T1 sequence (O60563 whole entry partner): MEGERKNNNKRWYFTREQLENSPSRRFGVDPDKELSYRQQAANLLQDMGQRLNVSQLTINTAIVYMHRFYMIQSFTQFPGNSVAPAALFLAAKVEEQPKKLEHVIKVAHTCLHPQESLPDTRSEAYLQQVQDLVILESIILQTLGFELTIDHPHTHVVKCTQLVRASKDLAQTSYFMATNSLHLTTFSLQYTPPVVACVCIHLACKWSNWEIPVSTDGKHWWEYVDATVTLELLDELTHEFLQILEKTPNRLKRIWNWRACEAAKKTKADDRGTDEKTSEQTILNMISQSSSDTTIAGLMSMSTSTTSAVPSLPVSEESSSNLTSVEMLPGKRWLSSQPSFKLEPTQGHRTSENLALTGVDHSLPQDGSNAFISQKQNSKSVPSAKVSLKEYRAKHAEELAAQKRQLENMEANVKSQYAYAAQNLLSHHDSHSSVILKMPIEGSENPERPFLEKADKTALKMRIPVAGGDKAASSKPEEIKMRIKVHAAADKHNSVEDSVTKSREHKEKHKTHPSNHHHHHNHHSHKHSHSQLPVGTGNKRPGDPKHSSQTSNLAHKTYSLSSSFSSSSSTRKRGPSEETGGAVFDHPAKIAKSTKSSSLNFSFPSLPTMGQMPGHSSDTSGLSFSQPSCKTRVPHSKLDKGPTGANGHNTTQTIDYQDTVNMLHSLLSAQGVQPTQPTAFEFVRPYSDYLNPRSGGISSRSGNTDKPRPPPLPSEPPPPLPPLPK
Summary of the method: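 TR-FRET detection of ULight-MBP substrate phosphorylation by CDK9/cyclin T1 using a Eu-anti-phospho-MBP antibody, in 50 mM HEPES pH 7.5, 10 mM MgCl2, 1 mM EGTA, 2 mM DTT, 0.01% Tween-20. Kinase reaction 1 h at room temperature, then EDTA detection buffer for 1 h before reading.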

CDK2/CycA = target: T2, CDK2/CycA (Homo sapiens, UniProt P24941); assay: CDK2 Enzymatic Activity Assay (Lance Kinase Activity Assay, FRET); settings: for CDK2 IC50 range class: Table 5B, symbols per IC50 ranges of b615
T2 construct: purchased Proqinase
Protocol: This protocol describes how the Lance Kinase Activity Assay was performed to determine IC50 values of compounds of general formula (I) against CDK/Cyclin complexes. The principle behind this enzymatic assay is based upon the phosphorylation of the Ulight-Peptide Substrat. It is detected by using a specific EU-labeled anti-phospho peptide antibody.
Binding of an inhibitor to the kinase prevents phosphorylation of the ULlight-MBP Substrat, resulting in a loss of FRET.
CDK2 Enzymatic Activity Assay
The compounds of general formula (I) exemplary summarized in Table 1 were diluted from a 10 mM DMSO stock solution 1:10 in a total volume of 15 μl DMSO. This compound predilution was then serial diluted 1:3 over 8 steps in DMSO and briefly spun down. Each compound solution was now diluted 1:20 in Enzymatic Buffer (HEPES: 50 mM, pH: 7.5; MgCl2: 10 mM; EGTA: 1 mM; DTT: 2 mM; Tween-20: 0.01%), mixed thoroughly and spun down.
For positive controls, 2 μl of DMSO working solution were mixed with 6 μl CDK2/CycA/substrate working solution and 2 μl ATP working solution. Positive and negative controls were calculated from at least 8 different wells. The 384 well plates were mixed in a Teleshaker plate mixer (Beckman Coulter, Brea, Calif., USA) at 2000 rpm for 40 sec, and incubated for 1 h at room temperature before addition of 10 μl LANCE Detection Buffer (EDTA: […]; Eu-Anti-P-MBP: 4 nM) per well. Plates were mixed in a Teleshaker plate mixer (Beckman Coulter, Brea, Calif., USA) at 2000 rpm for […], followed by incubation with Detection Buffer for 1 h, and reading. […] IC50 values were determined from the sigmoidal dose response curves with the software Quattro Workflow (Quattro GmbH, Munich, Germany).

CDK7/CycH/Mat1 = target: T3, CDK7/CycH/Mat1 (Homo sapiens, UniProt P50613); assay: CDK7 Enzymatic Activity Assay (Lance Kinase Activity Assay, FRET)
T3 construct: purchased Carna
T3 sequence (P50613 whole entry): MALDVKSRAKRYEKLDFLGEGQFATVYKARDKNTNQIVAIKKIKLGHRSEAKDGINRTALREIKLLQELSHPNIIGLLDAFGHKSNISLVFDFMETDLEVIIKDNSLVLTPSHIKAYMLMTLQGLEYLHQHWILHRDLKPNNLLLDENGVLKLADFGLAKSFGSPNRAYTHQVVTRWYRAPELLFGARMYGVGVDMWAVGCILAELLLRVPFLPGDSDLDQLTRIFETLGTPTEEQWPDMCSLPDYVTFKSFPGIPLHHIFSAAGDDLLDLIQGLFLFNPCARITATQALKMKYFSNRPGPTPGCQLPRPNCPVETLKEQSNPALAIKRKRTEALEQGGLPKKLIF
T3 sequence (P51946 whole entry partner): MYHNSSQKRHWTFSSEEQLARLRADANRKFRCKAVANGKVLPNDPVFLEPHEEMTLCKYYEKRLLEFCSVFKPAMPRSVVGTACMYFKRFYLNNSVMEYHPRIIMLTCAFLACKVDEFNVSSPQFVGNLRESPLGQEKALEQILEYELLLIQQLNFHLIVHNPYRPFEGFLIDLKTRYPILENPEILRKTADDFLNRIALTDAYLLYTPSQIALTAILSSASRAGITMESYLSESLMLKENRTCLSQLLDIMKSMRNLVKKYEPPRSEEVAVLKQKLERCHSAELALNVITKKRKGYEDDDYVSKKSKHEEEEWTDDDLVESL
T3 sequence (P51948 whole entry partner): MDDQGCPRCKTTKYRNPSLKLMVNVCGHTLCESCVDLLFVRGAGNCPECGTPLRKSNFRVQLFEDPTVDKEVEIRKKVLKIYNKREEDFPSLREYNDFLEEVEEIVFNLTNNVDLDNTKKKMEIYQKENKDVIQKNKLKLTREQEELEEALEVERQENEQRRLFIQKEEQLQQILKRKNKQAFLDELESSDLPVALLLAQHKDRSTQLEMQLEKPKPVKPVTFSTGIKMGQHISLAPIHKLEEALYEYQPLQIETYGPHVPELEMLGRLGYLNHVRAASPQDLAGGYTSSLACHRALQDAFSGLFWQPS
Summary of the method: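 TR-FRET (LANCE) kinase assay with ULight-MBP peptide substrate and Eu-labelled anti-phospho antibody; compounds in 8-point 1:3 series in HEPES 50 mM pH 7.5, MgCl2 10 mM, EGTA 1 mM, DTT 2 mM, 0.01% Tween-20.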

[1] = Table 5A, 25 μM ATP final, read-out: CDK7: IC50 [mM] for CDK7 inhibition (the above defined ranges apply)

SMILES	CDK9: Selectivity of CDK7 inhibition over CDK9 inhibition [fold] (CDK9/Cyclin T1)	CDK2 IC50 range class (CDK2/CycA)	IC50 (CDK7/CycH/Mat1; [1]) [µM]	also measured
CC(C)c1cnn2c(N[C@@H](C)c3ccccc3)nc(O[C@@H]3CCCNC3)nc12 [(VII-j), 8-isopropyl-N-((S)-1-phenylethyl)-2-((R)-piperidin-3-yloxy)pyrazolo[1,5-a][1,3,5]triazin-4-amine]	+++ (IC50>2500 nM)	+++ (IC50>2500 nM)	< 0.01	Selectivity CDK7 over CDK9 [fold] (CDK9/Cyclin T1; Table 6, CDK9 activity as multiple of CDK7 activity): 598 fold; Selectivity CDK7 over CDK2 [fold] (CDK2/CycA; Table 6, CDK2 activity as multiple of CDK7 activity): 733 fold; multiplicity of the CDK2 and CDK9 activity in terms of the CDK7 activity (CDK7/CycH/Mat1; CDK2 and CDK9 IC50 relative to CDK7 IC50, highest of the two ('up to')): > 733 fold; IC50 (CDK7/CycH/Mat1; Table 6, read-out: IC50 [nM] CDK7): < 0.01 µM; selectivity for CDK7 against CDK2 and CDK9 (in words) (CDK7/CycH/Mat1; comparison of the enzymatic activity assays for CDK2, CDK7 and CDK9): selectively inhibits only CDK7
COc1cccc([C@H](C)Nc2nc(C(=O)N(C)CCN3CCOCC3)nc3c(C(C)C)cnn23)c1 [(XXVI-2), (S)-8-isopropyl-4-((1-(3-methoxyphenyl)ethyl)amino)-N-methyl-N-(2-morpholinoethyl)pyrazolo[1,5-a][1,3,5]triazine-2-carboxamide]	+++ (IC50>2500 nM)	+++ (IC50>2500 nM)	> 0.1	–
COc1cccc([C@H](C)Nc2nc(N3CCC4(CCN4)CC3)nc3c(C(C)C)cnn23)c1 [(VIII-aj), (S)-8-isopropyl-N-(1-(3-methoxyphenyl)ethyl)-2-(1,7-diazaspiro[3.5]nonan-7-yl)pyrazolo[1,5-a][1,3,5]triazin-4-amine]	+++ (IC50>2500 nM)	+++ (IC50>2500 nM)	< 0.01	–
CC(C)c1cnn2c(N[C@@H](C)c3cccc4ccccc34)nc(O[C@@H]3CCCNC3)nc12 [(VII-am), 8-isopropyl-N-((S)-1-(naphthalen-1-yl)ethyl)-2-((R)-piperidin-3-yloxy)pyrazolo[1,5-a][1,3,5]triazin-4-amine]	+++ (IC50>2500 nM)	+++ (IC50>2500 nM)	0.01 to 0.03	–
COc1cccc([C@H](C)Nc2nc(N3CC4CCNC4C3)nc3c(C(C)C)cnn23)c1 (stereo partly drawn) [(VIII-r), 2-(hexahydropyrrolo[3,4-b]pyrrol-5(1H)-yl)-8-isopropyl-N-((S)-1-(3-methoxyphenyl)ethyl)pyrazolo[1,5-a][1,3,5]triazin-4-amine]	+++ (IC50>2500 nM)	+++ (IC50>2500 nM)	> 0.1	–
COc1cccc([C@H](C)Nc2nc(N3CCC4(CCNC4)C3)nc3c(C(C)C)cnn23)c1 (stereo partly drawn) [(VIII-af), 8-isopropyl-N-((S)-1-(3-methoxyphenyl)ethyl)-2-(2,7-diazaspiro[4.4]nonan-2-yl)pyrazolo[1,5-a][1,3,5]triazin-4-amine]	+++ (IC50>2500 nM)	+++ (IC50>2500 nM)	0.01 to 0.03	–
COc1cccc([C@H](C)Nc2nc(CN(C)CCN3CCCC3)nc3c(C(C)C)cnn23)c1 [(XXIX-6), (S)-8-isopropyl-N-(1-(3-methoxyphenyl)ethyl)-2-((methyl(2-(pyrrolidin-1-yl)ethyl)amino)methyl)pyrazolo[1,5-a][1,3,5]triazin-4-amine]	+++ (IC50>2500 nM)	+++ (IC50>2500 nM)	> 0.1	–
COc1cccc([C@H](C)Nc2nc(N3CCCC34CCNCC4)nc3c(C(C)C)cnn23)c1 [(VIII-ak), (S)-8-isopropyl-N-(1-(3-methoxyphenyl)ethyl)-2-(1,8-diazaspiro[4.5]decan-1-yl)pyrazolo[1,5-a][1,3,5]triazin-4-amine]	+++ (IC50>2500 nM)	+++ (IC50>2500 nM)	0.01 to 0.03	–
CC(C)c1cnn2c(N[C@@H](C)c3cccc(Cl)c3)nc(O[C@@H]3CCCNC3)nc12 [(VII-aj), N-((S)-1-(3-chlorophenyl)ethyl)-8-isopropyl-2-((R)-piperidin-3-yloxy)pyrazolo[1,5-a][1,3,5]triazin-4-amine]	+++ (IC50>2500 nM)	+++ (IC50>2500 nM)	0.03 to 0.1	–
CC(C)c1cnn2c(N[C@@H](C)c3ccccc3C(F)(F)F)nc(O[C@@H]3CCCNC3)nc12 [(VII-ah), 8-isopropyl-2-((R)-piperidin-3-yloxy)-N-((S)-1-(2-(trifluoromethyl)phenyl)ethyl)pyrazolo[1,5-a][1,3,5]triazin-4-amine]	+++ (IC50>2500 nM)	+++ (IC50>2500 nM)	0.01 to 0.03	–
COc1cccc([C@H](C)Nc2nc(N3CC(N4CCCC4=O)C3)nc3c(C(C)C)cnn23)c1 [(VIII-n), (S)-1-(1-(8-isopropyl-4-((1-(3-methoxyphenyl)ethyl)amino)pyrazolo[1,5-a][1,3,5]triazin-2-yl)azetidin-3-yl)pyrrolidin-2-one]	+++ (IC50>2500 nM)	+++ (IC50>2500 nM)	> 0.1	–
CC(C)c1cnn2c(NC(C)c3cccc4ncccc34)nc(OC3CC4(CC(N)C4)C3)nc12 (centres unmarked) [(VII-cc), 2-((6-aminospiro[3.3]heptan-2-yl)oxy)-8-isopropyl-N-(1-(quinolin-5-yl)ethyl)pyrazolo[1,5-a][1,3,5]triazin-4-amine]	+++ (IC50>2500 nM)	+++ (IC50>2500 nM)	0.01 to 0.03	–
COc1ccccc1[C@H](C)Nc1nc([S+]([O-])C2CCNCC2)nc2c(C(C)C)cnn12 (stereo partly drawn) [(X-c), 8-isopropyl-N-((S)-1-(2-methoxyphenyl)ethyl)-2-(piperidin-4-ylsulfinyl)pyrazolo[1,5-a][1,3,5]triazin-4-amine]	+++ (IC50>2500 nM)	+++ (IC50>2500 nM)	< 0.01	Selectivity CDK7 over CDK9 [fold] (CDK9/Cyclin T1; Table 7, lower part): 1475 fold; IC50 (CDK9/Cyclin T1; Table 7, upper part): > 2500 nM; Selectivity CDK7 over CDK2 [fold] (CDK2/CycA; Table 7, lower part): 1612 fold; IC50 (CDK2/CycA; Table 7, upper part): > 2500 nM; IC50 (CDK7/CycH/Mat1; Table 7, lower part, read-out: IC50 [nM] CDK7): < 0.01 µM; IC50 (CDK7/CycH/Mat1; Table 7, upper part, read-out: IC50 [nM] CDK7): < 0.01 µM
CC(C)c1cnn2c(NC(C)c3ccccc3S(=O)(=O)N3CCCC3)nc(O[C@@H]3CCCNC3)nc12 (stereo partly drawn) [(VII-bz), 8-isopropyl-2-((R)-piperidin-3-yloxy)-N-(1-(2-(pyrrolidin-1-ylsulfonyl)phenyl)ethyl)pyrazolo[1,5-a][1,3,5]triazin-4-amine]	+++ (IC50>2500 nM)	+++ (IC50>2500 nM)	< 0.01	–
CC(C)c1cnn2c(NC(C)c3ccccc3N3CCC3)nc(O[C@@H]3CCCNC3)nc12 (stereo partly drawn) [(VII-by), N-(1-(2-(azetidin-1-yl)phenyl)ethyl)-8-isopropyl-2-((R)-piperidin-3-yloxy)pyrazolo[1,5-a][1,3,5]triazin-4-amine]	+++ (IC50>2500 nM)	+++ (IC50>2500 nM)	< 0.01	–
COc1cccc([C@H](C)Nc2nc(CNCCCN3CCOCC3)nc3c(C(C)C)cnn23)c1 [(XXIX-5), (S)-8-isopropyl-N-(1-(3-methoxyphenyl)ethyl)-2-(((3-morpholinopropyl)amino)methyl)pyrazolo[1,5-a][1,3,5]triazin-4-amine]	+++ (IC50>2500 nM)	+++ (IC50>2500 nM)	> 0.1	–
COc1cccc([C@H](C)Nc2nc(N(C)CCN3CCCC3)nc3c(C(C)C)cnn23)c1 [(VIII-k), (S)-8-isopropyl-N4-(1-(3-methoxyphenyl)ethyl)-N2-methyl-N2-(2-(pyrrolidin-1-yl)ethyl)pyrazolo[1,5-a][1,3,5]triazine-2,4-diamine]	+++ (IC50>2500 nM)	+++ (IC50>2500 nM)	> 0.1	–
COc1cccc([C@H](C)Nc2nc(CN(C)CCCN3CCCCC3)nc3c(C(C)C)cnn23)c1 [(XXIX-8), (S)-8-isopropyl-N-(1-(3-methoxyphenyl)ethyl)-2-((methyl(3-(piperidin-1-yl)propyl)amino)methyl)pyrazolo[1,5-a][1,3,5]triazin-4-amine]	+++ (IC50>2500 nM)	+++ (IC50>2500 nM)	> 0.1	–
